Laboratory results reported in US20200292529A1, “NEW DRUG SCREENING ASSAY USING REGULATORY MACROPHAGES” (Universität Regensburg, priority 2017, published 2020).
Entries after “also recorded” stand apart in the source; their conditions may differ.

Key:
Foxp3+CD25+ iTreg cells [1] = assay: Mreg co-culture with naïve CD4+ T cells in lidded FACS tubes, iTreg analysis by flow cytometry; assay type: cell-based, human; conditions: tacrolimus 1 nM to 10 μM during co-culture; n=3 donors; FIG. 1
Method: (§1) A preparation of human Mregs (“Mreg B”) was prepared in 75 cm^2 flasks according to a modified protocol of Hutchinson. Peripheral blood mononuclear cells (PBMC) were obtained from a healthy donor for use as starting material for Mreg generation. The donor was screened for relevant disease markers, including infectious diseases, not more than 30 days prior to collection of PBMC. The donor was re-screened for the same disease markers on the day of leucocyte donation. PBMC were obtained by leukapheresis using the Spectra Optia® device. Human Mregs can also be generated from leukapheresates collected with alternative devices or from whole blood samples. PBMC from leukapheresis products were further purified by Ficoll-gradient centrifugation. CD14^+ monocytes were isolated from Ficoll-separated, washed PBMC by positive magnetic bead selection using research-grade CD14 microbeads (Miltenyi Biotec, GmbH) in accordance with the manufacturer's instructions. The preparation of isolated monocytes was quality-controlled for viability and purity of CD14^+ cells and contamination with CD3^+ T cells by flow cytometry. Isolated monocytes were resuspended in Mreg culture medium at a density of 7.5×10^5 viable monocytes/ml then plated in Cell+T75 flasks (Sarstedt) at 2×10^5 viable monocytes/cm^2 in a total volume of 20 ml medium. […]

Foxp3+CD25+ iTreg cells [2] = assay: Mreg-induced iTreg assay: Mreg co-culture with allogeneic CD3+ T cells in 96 well plates; assay type: cell-based; conditions: recombinant human IFN-γ 0-100 ng/ml during co-culture; n=8 donors; p<0.0001; FIG. 6
Method: as §1

Molecule: C=CC[C@@H]1/C=C(\C)C[C@H](C)C[C@H](OC)[C@H]2O[C@@](O)(C(=O)C(=O)N3CCCC[C@H]3C(=O)O[C@H](/C(C)=C/[C@@H]3CC[C@@H](O)[C@H](OC)C3)[C@H](C)[C@@H](O)CC1=O)[C@H](C)C[C@@H]2OC [tacrolimus]
- Mreg-mediated iTreg generation (Foxp3+CD25+ iTreg cells) (Foxp3+CD25+ iTreg cells [1]): inhibited the formation of Foxp3+CD25+ iTreg cells in a dose-dependent manner; also recorded: potently suppressed iTreg generation in a dose-dependent manner

B1: IFN-γ: recombinant human interferon gamma added to Mreg-T cell co-cultures (protein, UniProt P01579 24-161, looked up)
Interferon gamma: QDPYVKEAENLKKYFNAGHSDVADNGTLFLGILKNWKEESDRKIMQSQIVSFYFKLFKNFKDDQSIQKSVETIKEDMNVKFFNSNKKKRDDFEKLTNYSVTDLNVQRKAIHELIQVMAELSPAAKTGKRKRSQMLFRG
- iTreg generation versus IFN-γ concentration in the co-culture phase (linear regression) (Foxp3+CD25+ iTreg cells [2]): significant dose-dependent relationship
